According to PubChem BioAssay (NCI):
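All cell lines were grown in 96-well plates and treated with compound for 48 hours. GI50 marks 50% less growth. Definition used: TGI = concentration required for complete inhibition of growth.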 Calls of active or inactive are those of the source. No stated cut-off is given here; in the data, active means GI50 below about 0.43 µM; inactive means the rest.

Tests used:
Assay in all cases: inhibition of tumour cell growth, NCI panel, 48 h
[1] = system: LOX IMVI melanoma
[2] = system: RXF 393 renal
[3] = system: SF-268 CNS
[4] = system: SW-620 colon
[5] = system: OVCAR-8 ovarian
[6] = system: SK-OV-3 ovarian
[7] = system: RPMI-8226 leukemia
[8] = system: CAKI-1 renal

Structure (SMILES) | TGI [1] | TGI [2] | TGI [3] | TGI [4] | TGI [5] | TGI [6] | TGI [7] | TGI [8] | GI50 [1] | GI50 [2] | GI50 [8] | GI50 [3] | GI50 [4] | GI50 [5] | GI50 [6] | GI50 [7] | outcome [2] | outcome [3] | outcome [4] | outcome [6]
Cc1ccc(C#CS(=O)(=O)C(F)(F)F)cc1 | > 31.6 µM | > 100 µM | > 100 µM | > 100 µM | > 100 µM | > 100 µM | > 100 µM |  |  |  |  |  |  |  |  |  |  |  |  | 
NCCS(=O)(=O)O | > 100 µM |  | > 100 µM | > 100 µM | > 100 µM |  | > 100 µM | > 100 µM |  |  |  |  |  |  |  |  |  |  |  | 
CC(=O)c1[nH]c(Nc2ccc(C)cc2)c(C(=S)Nc2ccccc2)c1N | 33.3 µM | 27.9 µM | 30.2 µM | 96.9 µM | 39.4 µM | > 100 µM |  | 35.6 µM |  |  |  |  |  |  |  |  |  |  |  | 
O=Cc1c(Br)[nH]c2ccccc12 | > 100 µM | > 100 µM | > 100 µM | > 100 µM | > 100 µM | > 100 µM | > 100 µM |  |  |  |  |  |  |  |  |  |  |  |  | 
O=C(c1ccccc1O)c1cc(-c2ncc3c(=O)c4ccccc4oc3n2)c(-c2ccccc2O)[nH]c1=O | 39.1 µM | 93.4 µM | > 75.9 µM | > 77.1 µM | > 90.2 µM | 85.2 µM | 60.4 µM | > 33.3 µM |  |  |  |  |  |  |  |  |  |  |  | 
N#Cc1ccc(C2Oc3ccc(Cl)cc3C=C2[N+](=O)[O-])cc1 (stereo not given) | 3.02 µM | 9.86 µM | 4.16 µM |  |  | 5.57 µM | 1.25 µM | 2.96 µM |  |  |  |  |  |  |  |  |  |  |  | 
O=C(Nc1ccc(Sc2ccc(N=Nc3c(O)c(S(=O)(=O)O)cc4cc(S(=O)(=O)O)ccc34)cc2)cc1)c1ccc(N=Nc2c(O)c(S(=O)(=O)O)cc3cc(S(=O)(=O)O)ccc23)cc1 | 34.5 µM | 71.7 µM | > 100 µM | > 100 µM | > 100 µM | > 100 µM | 56.2 µM | > 100 µM |  |  |  |  |  |  |  |  |  |  |  | 
C[N+]1([O-])[C@H]2CC(OC(=O)[C@H](CO)c3ccccc3)C[C@H]1[C@H]1O[C@H]12 (stereo not given in full) | > 100 µM | > 100 µM |  | > 100 µM | > 100 µM | > 100 µM | > 100 µM | > 100 µM |  |  |  |  |  |  |  |  |  |  |  | 
COc1ccc([C@H]2c3cc4c(cc3OC(O)(CO)[C@H]2C(=O)O)OCO4)c(OC)c1 (stereo not given in full) (tested in a mixture with another compound) | > 100 µM | > 100 µM | > 100 µM | > 100 µM | > 100 µM | > 100 µM | > 100 µM |  |  |  |  |  |  |  |  |  |  |  |  | 
CCOC(=O)C1=C(c2ccccc2)C12N(Cc1ccccc1)C(=O)C2(c1ccccc1)c1ccccc1 (stereo not given) | > 100 µM | > 100 µM | > 100 µM | > 100 µM |  | > 100 µM | > 100 µM |  |  |  |  |  |  |  |  |  |  |  |  | 
O=NN1C(c2ccccc2)CCCC1c1ccccc1 (stereo not given) | > 100 µM | > 100 µM | > 100 µM | > 100 µM | > 100 µM | > 82.3 µM | > 100 µM | > 100 µM |  |  |  |  |  |  |  |  |  |  |  | 
COc1cc(/C(=C2/O[C@@H]([C@H]3COC(C)(C)O3)[C@H]3OC(C)(C)O[C@@H]23)c2ccc3c(c2)OCO3)cc(OC)c1OC | > 25 µM | > 25 µM | > 25 µM | > 25 µM | > 25 µM | > 25 µM | > 25 µM | > 25 µM | > 25 µM | 6.05 µM | > 25 µM | > 25 µM | > 25 µM | > 25 µM | > 25 µM | > 25 µM |  |  |  | 
O=P(O)(O)CN1CCNCCN(CP(=O)(O)O)CCN(CP(=O)(O)O)CCNCC1 |  |  |  |  |  |  |  | 86100 µM |  |  |  |  |  |  |  |  | inactive | inactive | inactive | inactive
O=C1c2cc3c(cc2CC1Cc1ccc2c(c1)CCC2)CCC3 (stereo not given) | > 100 µM | > 100 µM | > 100 µM | > 100 µM | > 100 µM | > 100 µM | > 100 µM |  |  |  |  |  |  |  |  |  |  |  |  | 
O=C(c1ccccc1)c1c(C(F)(F)F)n([O-])c2cc(F)c(F)cc2[n+]1=O |  | 2.22 µM | 2.45 µM | > 100 µM | 1.15 µM | > 49.5 µM | > 100 µM | 1.76 µM |  |  |  |  |  |  |  |  |  |  |  | 
O=C(CSCC(=O)N/N=C\c1ccccc1F)N/N=C\c1ccccc1F | > 100 µM | > 100 µM | > 100 µM | > 100 µM | > 100 µM | > 100 µM | > 100 µM | > 100 µM |  |  |  |  |  |  |  |  |  |  |  | 
CCCCOc1ccc2c(c1)CC[C@@H]1[C@@H]2CC[C@]2(C)C(=O)N(CCCC)C(=O)C[C@@H]12 |  |  |  |  | > 100 µM | > 100 µM | > 100 µM | > 100 µM |  |  |  |  |  |  |  |  |  |  |  | 
COc1cc(-c2nc3cc(Cl)c(Cl)cc3[nH]2)ccc1OCC(=O)N=Nc1c(O)[nH]c2ccc(Cl)cc12 | 0.738 µM | 3.4 µM |  |  |  | 4.57 µM |  |  | 0.233 µM | 1 µM |  |  |  |  | 1.83 µM |  |  |  |  | 
